The values that follow come from patent US10689378B2, “Triazolopyridine compounds and uses thereof” (Novartis AG, priority 2016, dated 2020).

By IC50 is commonly meant the concentration that gives 50% inhibition.

Structures are written as SMILES.

The target in one assay is T1, EED (1-441)-His protein (Homo sapiens, UniProt O75530).
T1 construct: 30 nM EED (1-441)-His protein
In words: EED-H3K27Me3 peptide competition binding assay by AlphaScreen. The note with it: read-out: (a) IC50, EED Alphascreen binding Qualified. A digest of the protocol: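 Serially diluted compound (12 points, 3-fold) incubated 20 min with 30 nM EED(1-441)-His and 15 nM biotin-H3K27Me3(19-33) peptide in 25 mM HEPES pH 8, 0.02% Tween-20, 0.5% BSA. Ni-chelate acceptor/streptavidin donor beads (10 μg/mL each) added, 1 h rt dark; 615 nm emission normalized to controls, dose-response fit for IC50.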
For orientation: In Alpha technology, singlet oxygen from a donor bead excites a nearby acceptor bead.

The test system of assay [1] is H3K27 methylation in G401 cell. In words: ELISA (H3K27 methylation) assay in G401 cells. Type of assay: cell-based, human. The note with it: Homo sapiens, G-401, read-out: (c) IC50, ELISA Qualified. The method in brief:
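IC50 from dose-response fit of percent inhibition relative to DMSO, using H3K27me3/me2 ELISA signal (ECL) normalized to histone H3. Histones HCl-extracted after 48 h compound exposure of G401 cells at up to 20 μM, 8- or 12-point 3-fold series.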

The target in assay [2] is wild type PRC2 (wtPRC2) complex (Homo sapiens, UniProt O75530). As to the kind of experiment: EED LC-MS assay (SAH production by PRC2). Type of assay: biochemical. The note with it: read-out: (b) IC50, EED LC-MS Qualified. The method in brief: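 LC-MS/MS readout of SAH (d4-SAH standard) after TFA quench gives PRC2 activity, normalized to controls and fitted to dose-response for IC50. Reaction: 12 nM EZH2/SUZ12/EED/Rbap48/AEBP complex, 1 μM SAM, 1.5 μM H3[21-44] peptide, 120 min rt, 20 min compound preincubation.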
wild type PRC2 (wtPRC2) complex, sequence (O75530 whole entry): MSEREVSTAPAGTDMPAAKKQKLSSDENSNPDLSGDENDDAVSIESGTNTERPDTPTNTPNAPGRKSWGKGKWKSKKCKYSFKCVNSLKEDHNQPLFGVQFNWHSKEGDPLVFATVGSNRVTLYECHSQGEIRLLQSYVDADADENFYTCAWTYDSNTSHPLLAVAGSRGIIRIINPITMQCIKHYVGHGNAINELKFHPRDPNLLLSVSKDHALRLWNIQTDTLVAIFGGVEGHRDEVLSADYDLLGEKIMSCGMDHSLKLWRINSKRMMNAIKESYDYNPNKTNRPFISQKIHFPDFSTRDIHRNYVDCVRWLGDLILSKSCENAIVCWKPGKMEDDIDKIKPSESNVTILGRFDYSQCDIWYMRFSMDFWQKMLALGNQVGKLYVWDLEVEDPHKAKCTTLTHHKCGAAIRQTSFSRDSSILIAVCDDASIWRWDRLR
wild type PRC2 (wtPRC2) complex, sequence (Q15910 whole entry partner): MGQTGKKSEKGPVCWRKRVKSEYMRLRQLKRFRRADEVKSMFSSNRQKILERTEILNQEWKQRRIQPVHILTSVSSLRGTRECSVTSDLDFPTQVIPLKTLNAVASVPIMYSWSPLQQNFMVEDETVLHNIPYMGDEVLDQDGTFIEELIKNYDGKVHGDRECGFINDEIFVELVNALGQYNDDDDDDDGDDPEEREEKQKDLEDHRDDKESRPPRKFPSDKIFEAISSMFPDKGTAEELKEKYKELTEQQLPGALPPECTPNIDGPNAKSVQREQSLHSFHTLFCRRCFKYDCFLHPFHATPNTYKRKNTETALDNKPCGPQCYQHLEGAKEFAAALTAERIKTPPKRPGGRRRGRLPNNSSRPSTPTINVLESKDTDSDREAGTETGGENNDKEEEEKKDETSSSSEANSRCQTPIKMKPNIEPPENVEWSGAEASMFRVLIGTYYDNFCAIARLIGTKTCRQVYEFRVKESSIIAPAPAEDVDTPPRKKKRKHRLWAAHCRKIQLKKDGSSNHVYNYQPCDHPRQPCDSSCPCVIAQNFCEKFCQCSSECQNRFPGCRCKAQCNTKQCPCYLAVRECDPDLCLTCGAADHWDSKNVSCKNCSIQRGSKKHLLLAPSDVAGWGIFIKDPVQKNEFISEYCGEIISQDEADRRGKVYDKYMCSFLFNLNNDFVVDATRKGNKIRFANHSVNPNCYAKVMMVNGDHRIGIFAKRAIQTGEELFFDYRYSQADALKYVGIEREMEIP
wild type PRC2 (wtPRC2) complex, sequence (Q15022 whole entry partner): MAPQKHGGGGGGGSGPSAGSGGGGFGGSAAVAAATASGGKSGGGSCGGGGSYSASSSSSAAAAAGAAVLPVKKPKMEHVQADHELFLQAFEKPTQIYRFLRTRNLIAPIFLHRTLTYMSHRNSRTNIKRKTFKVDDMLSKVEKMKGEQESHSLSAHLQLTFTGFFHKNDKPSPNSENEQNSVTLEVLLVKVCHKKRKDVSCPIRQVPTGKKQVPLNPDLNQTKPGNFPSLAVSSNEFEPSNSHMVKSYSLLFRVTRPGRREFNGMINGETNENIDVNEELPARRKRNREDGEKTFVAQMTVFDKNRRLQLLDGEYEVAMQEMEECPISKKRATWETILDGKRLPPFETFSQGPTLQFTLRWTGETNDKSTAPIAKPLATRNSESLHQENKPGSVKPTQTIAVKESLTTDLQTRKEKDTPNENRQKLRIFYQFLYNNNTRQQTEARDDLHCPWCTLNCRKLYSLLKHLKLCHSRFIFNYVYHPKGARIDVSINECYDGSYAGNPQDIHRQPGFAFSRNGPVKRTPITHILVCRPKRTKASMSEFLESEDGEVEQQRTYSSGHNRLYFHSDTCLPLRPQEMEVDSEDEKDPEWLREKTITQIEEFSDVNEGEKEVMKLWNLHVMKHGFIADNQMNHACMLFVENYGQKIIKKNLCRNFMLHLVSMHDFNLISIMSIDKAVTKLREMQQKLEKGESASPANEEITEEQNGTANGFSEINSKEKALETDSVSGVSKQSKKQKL
wild type PRC2 (wtPRC2) complex, sequence (Q09028 whole entry partner): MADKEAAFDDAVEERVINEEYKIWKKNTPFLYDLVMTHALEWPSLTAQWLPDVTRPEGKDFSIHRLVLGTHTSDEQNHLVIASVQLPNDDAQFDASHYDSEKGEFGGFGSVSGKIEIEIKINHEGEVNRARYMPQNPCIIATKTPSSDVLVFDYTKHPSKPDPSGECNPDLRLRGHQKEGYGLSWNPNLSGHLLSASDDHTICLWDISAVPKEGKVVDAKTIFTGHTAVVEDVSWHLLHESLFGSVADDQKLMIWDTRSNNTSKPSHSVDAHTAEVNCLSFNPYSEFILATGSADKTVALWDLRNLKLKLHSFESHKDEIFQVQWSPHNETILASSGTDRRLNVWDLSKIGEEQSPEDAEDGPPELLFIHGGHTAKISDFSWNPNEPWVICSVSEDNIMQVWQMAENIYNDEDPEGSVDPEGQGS
wild type PRC2 (wtPRC2) complex, sequence (Q6ZN18 whole entry partner): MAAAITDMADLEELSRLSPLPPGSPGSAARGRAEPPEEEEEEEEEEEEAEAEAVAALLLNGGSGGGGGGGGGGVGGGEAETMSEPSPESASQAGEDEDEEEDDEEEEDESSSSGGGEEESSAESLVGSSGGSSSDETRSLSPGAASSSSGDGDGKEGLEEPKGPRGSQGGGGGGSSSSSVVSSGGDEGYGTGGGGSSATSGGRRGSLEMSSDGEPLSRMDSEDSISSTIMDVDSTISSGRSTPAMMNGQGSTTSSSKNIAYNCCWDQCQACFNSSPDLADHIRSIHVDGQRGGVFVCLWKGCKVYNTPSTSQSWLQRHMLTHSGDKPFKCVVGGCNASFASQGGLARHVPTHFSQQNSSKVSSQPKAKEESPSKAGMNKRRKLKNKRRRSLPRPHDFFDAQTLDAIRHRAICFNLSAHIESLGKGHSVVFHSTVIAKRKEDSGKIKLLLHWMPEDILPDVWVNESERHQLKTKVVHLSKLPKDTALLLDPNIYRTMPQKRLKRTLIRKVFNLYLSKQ

T1 sequence (O75530 whole entry): as the sequence (O75530 whole entry) above

For the compound `COc1cccc(F)c1CNc1ccc(-c2ccc(N3CCN(C(C)C)CC3)nc2)c2nncn12` [Example 130, N-(2-fluoro-6-methoxybenzyl)-8-(6-(4-isopropylpiperazin-1-yl)pyridin-3-yl)-[1,2,4]triazolo[4,3-a]pyridin-5-amine], the IC50 on EED (1-441)-His protein came out at 0.0311 µM; in assay [1], 0.0809 µM; in assay [2] it was 0.0625 µM.

As to `COc1cccc(F)c1CNc1ccc(-c2cnc(N3CCN(C(C)C)CC3)nc2)c2nncn12` [Example 131, N-(2-fluoro-6-methoxybenzyl)-8-(2-(4-isopropylpiperazin-1-yl)pyrimidin-5-yl)-[1,2,4]triazolo[4,3-a] pyridin-5-amine], the IC50 at EED (1-441)-His protein came out at 0.0322 µM; in assay [1], 0.0812 µM; in assay [2], 0.181 µM.

Take `COc1cccc(F)c1CNc1ccc(-c2ccc(S(=O)(=O)C3CCNCC3)cc2)c2nncn12` [Example 132, N-(2-fluoro-6-methoxybenzyl)-8-(4-(piperidin-4-ylsulfonyl)phenyl)-[1,2,4] triazolo[4,3-a]pyridin-5-amine]: the concentration for half-maximal inhibition (IC50) at EED (1-441)-His protein came out at 0.0691 µM; in assay [1] it was 0.0218 µM; in assay [2], 0.0649 µM.

`COc1cccc(F)c1CNc1ccc(-c2ccc(S(=O)(=O)C3CCN(C)CC3)cc2)c2nncn12` [Example 133, N-(2-fluoro-6-methoxybenzyl)-8-(4-((1-methylpiperidin-4-yl)sulfonyl)phenyl)-[1,2,4]triazolo[4,3-a] pyridin-5-amine]: the IC50 on EED (1-441)-His protein was 0.005 µM; in assay [1], 0.0053 µM; in assay [2] it was 0.0658 µM.

Regarding `COc1cccc(F)c1CNc1ccc(-c2c(C)noc2C)c2nncn12` [Example 139, 8-(3,5-dimethylisoxazol-4-yl)-N-(2-fluoro-6-methoxybenzyl)-[1,2,4]triazolo[4,3-a] pyridin-5-amine], the IC50 at EED (1-441)-His protein amounted to 0.026 µM; in assay [1], 0.0117 µM; in assay [2], 0.0465 µM.

As for `COc1cccc(F)c1CNc1ccc(-c2cncc(S(C)(=O)=O)c2)c2nncn12` [Example 140, N-(2-fluoro-6-methoxybenzyl)-8-(5-(methylsulfonyl)pyridin-3-yl)-[1,2,4]triazolo[4,3-a] pyridin-5-amine], the results for the IC50 (on EED (1-441)-His protein; in assay [1]; in assay [2]) were 0.0175 µM, 0.0188 µM and 0.268 µM, respectively.

Consider `COc1cccc(F)c1CNc1ccc(-c2cccc(S(C)(=O)=O)c2)c2nncn12` [Example 142, N-(2-fluoro-6-methoxybenzyl)-8-(3-(methylsulfonyl)phenyl)-[1,2,4]triazolo[4,3-a]pyridin-5-amine], for which the concentration for half-maximal inhibition (IC50) on EED (1-441)-His protein came out at 0.0136 µM; in assay [1] it was 0.0348 µM; in assay [2], 0.106 µM.

For `CCN1CCC(S(=O)(=O)c2ccc(-c3ccc(NCc4ccccc4OC)n4cnnc34)cn2)CC1` [Example 143, 8-(6-((1-ethylpiperidin-4-yl)sulfonyl)pyridin-3-yl)-N-(2-methoxybenzyl)-[1,2,4] triazolo[4,3-a]pyridin-5-amine], the 50% inhibitory concentration (IC50) stood at 0.0311 µM on EED (1-441)-His protein, 0.0532 µM in assay [1] and 0.323 µM in assay [2].

As to `COc1cccc(F)c1CNc1ccc(-c2cncnc2)c2nncn12` [Example 147, N-(2-fluoro-6-methoxybenzyl)-8-(pyrimidin-5-yl)-[1,2,4]triazolo[4,3-a]pyridin-5-amine], the 50% inhibitory concentration (IC50) on EED (1-441)-His protein stood at 0.0774 µM; in assay [1] it was 0.0425 µM; in assay [2], 0.0608 µM.

On to `COc1cncc(-c2ccc(NCc3c(F)cccc3OC)n3cnnc23)c1` [Example 148, N-(2-fluoro-6-methoxybenzyl)-8-(5-methoxypyridin-3-yl)-[1,2,4] triazolo[4,3-a]pyridin-5-amine], for which the results for the IC50 (on EED (1-441)-His protein; in assay [1]; in assay [2]) were 0.0289 µM, 0.0606 µM and 0.0998 µM, respectively.

Consider `CCN1CCC(S(=O)(=O)c2ccc(-c3ccc(NCc4c(F)cccc4OC)n4cnnc34)cn2)CC1` [Example 149, 8-(6-((1-ethylpiperidin-4-yl)sulfonyl)pyridin-3-yl)-N-(2-fluoro-6-methoxybenzyl)-[1,2,4]triazolo[4,3-a]pyridin-5-amine], for which the concentration for half-maximal inhibition (IC50) on EED (1-441)-His protein turned out to be 0.0182 µM; in assay [1] it was 0.0149 µM; in assay [2], 0.0271 µM.

On to `COc1cccc(F)c1CNc1ccc(-c2cnccc2C)c2nncn12` [Example 150, N-(2-fluoro-6-methoxybenzyl)-8-(4-methylpyridin-3-yl)-[1,2,4]triazolo[4,3-a] pyridin-5-amine], for which the concentration for half-maximal inhibition (IC50) was 0.0356 µM on EED (1-441)-His protein, 0.0142 µM in assay [1] and 0.0948 µM in assay [2].

For `COc1cccc(F)c1CNc1ccc(-c2ccc(O)nc2)c2nncn12` [Example 151, 5-(5-((2-fluoro-6-methoxybenzyl)amino)-[1,2,4]triazolo[4,3-a]pyridin-8-yl) pyridin-2-ol], the IC50 amounted to 0.0664 µM at EED (1-441)-His protein, 0.0803 µM in assay [1] and 0.676 µM in assay [2].

On to `CCN1CCN(c2ccc(-c3ccc(NCc4ccccc4OC)n4cnnc34)cc2)CC1` [Example 152, 8-(4-(4-ethylpiperazin-1-yl)phenyl)-N-(2-methoxybenzyl)-[1,2,4]triazolo[4,3-a] pyridin-5-amine], for which the concentration for half-maximal inhibition (IC50) on EED (1-441)-His protein was 0.0659 µM; in assay [1] it was 0.101 µM; in assay [2] it was 0.207 µM.

In the case of `COc1cccc(F)c1CNc1ccc(-c2ccc(N(C)S(C)(=O)=O)cc2)c2nncn12` [Example 154, N-(4-(5-((2-fluoro-6-methoxybenzyl)amino)-[1,2,4]triazolo[4,3-a]pyridin-8-yl)phenyl)-N-methyl methanesulfonamide], the figures for the IC50 (at EED (1-441)-His protein; in assay [1]; in assay [2]) were 0.0045 µM, 0.0049 µM and 0.0834 µM, respectively.

Take `COc1cccc(F)c1CNc1ccc(-c2ccc(OCCO)cc2)c2nncn12` [Example 157, 2-(4-(5-((2-fluoro-6-methoxybenzyl)amino)-[1,2,4]triazolo[4,3-a]pyridin-8-yl)phenoxy)ethanol]: the IC50 was 0.0404 µM on EED (1-441)-His protein, 0.0431 µM in assay [1] and 0.152 µM in assay [2].

Consider `COc1cccc(F)c1CNc1ccc(-c2cncc(F)c2)c2nncn12` [Example 158, N-(2-fluoro-6-methoxybenzyl)-8-(5-fluoropyridin-3-yl)-[1,2,4]triazolo[4,3-a] pyridin-5-amine], for which the figures for the IC50 (at EED (1-441)-His protein; in assay [1]; in assay [2]) were 0.0138 µM, 0.0196 µM and 0.0389 µM, respectively.

Regarding `COc1cccc(F)c1CNc1ccc(-c2ccc(F)nc2)c2nncn12` [Example 159, N-(2-fluoro-6-methoxybenzyl)-8-(6-fluoropyridin-3-yl)-[1,2,4]triazolo[4,3-a] pyridin-5-amine], the figures for the concentration for half-maximal inhibition (IC50) (on EED (1-441)-His protein; in assay [1]; in assay [2]) were 0.049 µM, 0.041 µM and 0.102 µM, respectively.

Take `COc1cccc(F)c1CNc1ccc(-c2cnc(S(C)(=O)=O)c(C)c2)c2nncn12` [Example 160, N-(2-fluoro-6-methoxybenzyl)-8-(5-methyl-6-(methylsulfonyl)pyridin-3-yl)-[1,2,4]triazolo[4,3-a] pyridin-5-amine]: the values for the IC50 (on EED (1-441)-His protein; in assay [1]; in assay [2]) were 0.0157 µM, 0.0148 µM and 0.351 µM, respectively.

`COc1cccc(F)c1CNc1ccc(-c2cnc(C)nc2)c2nncn12` [Example 161, N-(2-fluoro-6-methoxybenzyl)-8-(2-methylpyrimidin-5-yl)-[1,2,4] triazolo[4,3-a]pyridin-5-amine]: the IC50 on EED (1-441)-His protein worked out at 0.0487 µM; in assay [1], 0.0261 µM; in assay [2] it was 0.0901 µM.

In the case of `COc1cc(F)cc(F)c1CNc1ccc(-c2ccc(CN(C)C)cc2)c2nncn12` [Example 162, N-(2,4-difluoro-6-methoxybenzyl)-8-(4-((dimethylamino)methyl)phenyl)-[1,2,4]triazolo[4,3-a]pyridin-5-amine], the half-maximal inhibitory concentration (IC50) at EED (1-441)-His protein worked out at 0.0166 µM; in assay [1], 0.0143 µM; in assay [2] it was 0.0775 µM.

For the compound `COc1cccc(F)c1CNc1ccc(-c2ccc(N(C)S(C)(=O)=O)nc2)c2nncn12` [Example 163, N-(5-(5-((2-fluoro-6-methoxybenzyl)amino)-[1,2,4]triazolo[4,3-a]pyridin-8-yl)pyridin-2-yl)-N-methylmethanesulfonamide], the results for the IC50 (at EED (1-441)-His protein; in assay [1]; in assay [2]) were 0.0166 µM, 0.0107 µM and 0.0505 µM, respectively.

For `COc1cccc(F)c1CNc1ccc(-c2ccc(C)nc2)c2nncn12` [Example 164, N-(2-fluoro-6-methoxybenzyl)-8-(6-methylpyridin-3-yl)-[1,2,4]triazolo[4,3-a]pyridin-5-amine], the results for the IC50 (at EED (1-441)-His protein; in assay [1]; in assay [2]) were 0.0332 µM, 0.036 µM and 0.12 µM, respectively.

For `COc1cccc(F)c1CNc1ccc(-c2cncc(C)c2)c2nncn12` [Example 165, N-(2-fluoro-6-methoxybenzyl)-8-(5-methylpyridin-3-yl)-[1,2,4]triazolo[4,3-a]pyridin-5-amine], the IC50 at EED (1-441)-His protein was 0.0159 µM; in assay [1] it was 0.014 µM; in assay [2], 0.038 µM.

Regarding `COc1cccc(F)c1CNc1ccc(-c2cccnc2F)c2nncn12` [Example 166, N-(2-fluoro-6-methoxybenzyl)-8-(2-fluoropyridin-3-yl)-[1,2,4]triazolo[4,3-a]pyridin-5-amine], the IC50 at EED (1-441)-His protein is 0.0252 µM; in assay [1], 0.0333 µM; in assay [2], 0.0204 µM.
